d = 2'-deoxy (DNA); r = 2'-OH (RNA)
Key:
HCV infected Huh-7 cells = test: Viral RNA load in chronic HCV infected cells by qPCR; type: cell-based, hepatitis C virus; details: increasing dose, 24 hours, qPCR (FIG. 5a)
Experimental: To assess the ability of REV-ERB activators to limit HCV RNA replication, HCV infected Huh-7 cells (verified by NSSA staining) were treated with GSK4112 or SR9009 at a range of doses. […], HCV infection levels were quantified by reverse transcriptase polymerase chain measurement of viral RNA (see FIG. 4b).
Huh-7 cells were treated with either REV-ERBα agonist GSK4112 or SR9009 for 16 hour at a range of doses. Medium containing the drug was then removed following viral inoculation and infectivity assessed 24 hours later. To evaluate the efficacy of these drugs in viral replication, chronic infected HCV or HBV cells were treated with REV-ERBα activators at a range of concentrations and viral load determined by real-time qPCR 24 hours later.
(§1) The ability of REV-ERBα activators to reduce viral burden of chronic HCV infected cells was then tested. […] An identical assay was performed in two chronic HBV infected cell lines—2215 and AD38.
HCVcc SA13/JFH-1 infected Huh-7 cells were also treated with increasing concentrations of GSK2667 for 24 h and viral RNA levels measured after 24 h.

[1] = system: pseudoparticles expressing viral glycoproteins (HCV, VSV, Lassa, Flu, MLC, Ebola); type: cell-based
Bmal1 mRNA = Bmal1 mRNA levels by qPCR in hepatocytes / Huh-7 cells; details: qPCR (FIG. 3a)
HCV sub-genomic replicon = test: HCV genome replication in a synthetic sub-genomic replicon line; details: dose-dependent (FIG. 4a)
HIV virus (NL4.3) = test: HIV (NL4.3) infection of TZM-bl cells, HIV promoter luciferase assay; details: for HIV infection (HIV promoter activity): increasing dose, 24 h (FIGS. 11a, 11b)
Bna1 promoter = details: cited from earlier work
HCVpp = type: cell-based, hepatitis C virus; details: cells treated with Rev-erbα agonists (FIG. 3c, 3d)
[2] = system: chronic HBV infected cell lines 2215 and AD38; test: HBV RNA levels in chronic HBV infected cell lines; type: cell-based, hepatitis B virus; details: 2215 and AD38 cells, 48 hours (FIG. 5c)
Experimental: Huh-7 cells were treated with either REV-ERBα agonist GSK4112 or SR9009 for 16 hour at a range of doses. Medium containing the drug was then removed following viral inoculation and infectivity assessed 24 hours later.
as §1

Zika virus = details: Huh-7, infectivity after 24 h and 48 h (FIG. 12)
[3] = system: HCV genotype 3a S52 replicon; details: REV-ERB agonists 20 μM with increasing DAA, 48 h (FIGS. 10f, 10g)
[4] = system: HCV sub-genomic replicons genotypes 1b, 2a, 3a; test: HCV sub-genomic luciferase replicons genotypes 1-3 in Huh-7.5-SEC14L2 cells; details: genotypes 1-3 replicons, increasing concentrations, 24 h (FIGS. 10c-e)

Compound	Viral load (HCV genomic RNA) (HCV infected Huh-7 cells)	Bmal1 mRNA levels (Bmal1 mRNA)	Replication of the HCV genome (HCV sub-genomic replicon)	HIV infection (HIV promoter activity) (HIV virus (NL4.3))	Effect on the anti-viral activity (HCV entry) of REV-ERBα agonists GSK4112/SR9009 (HCVpp)	Combined effect of REV-ERB agonist and DAA on HCV genotype 3 replication [3]	other results
CC(C)(C)OC(=O)CN(Cc1ccc(Cl)cc1)Cc1ccc([N+](=O)[O-])s1 [GSK4112]	dose-dependent reduction in viral load	decreased Bmal1 mRNA levels	inhibited	inhibit HIV infection	–	–	Entry of pseudoparticles of multiple viruses [1]: inhibitory effect on entry was replicated across multiple viruses including lassa and ebola
CS(=O)(=O)N(Cc1ccco1)CC(O)Cn1c2ccccc2c2ccccc21 (stereo not shown) [KL001]	–	–	–	–	–	–	Bmal1 promoter activity (Bna1 promoter): inhibit Bna1 promoter activity
CCOC(=O)C1Cc2ccccc2CN1C(=O)c1ccc(SC)s1 (stereo not shown) [SR8278]	–	–	–	promotes HIV infection	rescued	–	–
CCOC(=O)N1CCC(CN(Cc2ccc(Cl)cc2)Cc2ccc([N+](=O)[O-])s2)C1 (stereo not shown) [SR9009]	dose-dependent reduction in viral load	decreased Bmal1 mRNA levels	inhibited	inhibit HIV infection	–	additive effects	HBV RNA levels [2]: significantly reduced HBV RNA levels; Zika infection (Zika virus): inhibit Zika infection; Antiviral activity against HCV RNA replication across genotypes [4]: pan-genomic
CC(C)OC(=O)[C@H](C)N[P@](=O)(OC[C@H]1O[C@@H](n2ccc(=O)[nH]c2=O)[C@](C)(F)[C@@H]1O)Oc1ccccc1 [Sofosbuvir]	–	–	–	–	–	additive effects	–
Rev-erbα siRNA: rev-erba siRNA duplex from Life technologies, SEQ ID NO 5 and 6, two-base DNA overhang (chain 1 GGUGUCUGAAGAAUGAGAATT; chain 2 UUCUCAUUCUUCAGACACCTT; sugars from the 5' end r19 d2, backbone and methylation of C not given here)	–	–	–	–	rescued	–	HIV promoter activity after siRNA knockdown (HIV virus (NL4.3); 48 h post-siRNA, HIV 24 h (FIG. 11c)): increased HIV promoter activity
